Structures are written as SMILES.

In assay [1] the target is T1, LXRβ [NR1H2] ligand binding domain (Homo sapiens, UniProt P55055).
T1 sequence (P55055 222-460 limits assumed): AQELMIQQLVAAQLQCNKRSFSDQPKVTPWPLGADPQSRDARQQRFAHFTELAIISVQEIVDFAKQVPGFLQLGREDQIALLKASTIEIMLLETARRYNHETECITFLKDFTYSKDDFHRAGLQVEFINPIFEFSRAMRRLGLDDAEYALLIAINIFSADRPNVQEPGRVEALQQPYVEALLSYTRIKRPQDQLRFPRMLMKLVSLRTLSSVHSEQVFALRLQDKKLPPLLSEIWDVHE
The assay is described as follows: Radioligand binding assay with 3H-T0901317, LXRβ ligand binding domain.

Assay [2] concerns the target T2, LXRα [NR1H3] ligand binding domain (Homo sapiens, UniProt Q13133).
T2 sequence (Q13133 209-447 limits assumed): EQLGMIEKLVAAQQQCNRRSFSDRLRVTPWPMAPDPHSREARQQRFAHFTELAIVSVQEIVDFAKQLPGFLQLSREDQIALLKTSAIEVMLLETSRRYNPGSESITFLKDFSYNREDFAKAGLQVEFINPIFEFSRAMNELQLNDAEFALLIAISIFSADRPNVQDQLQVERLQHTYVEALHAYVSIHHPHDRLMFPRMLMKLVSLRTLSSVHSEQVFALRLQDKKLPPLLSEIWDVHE
The assay is described as follows: Radioligand binding assay with 3H-T0901317, LXRα ligand binding domain.

Assay [3] relates to ABCA1 expression (LXR target gene) in THP-1 cells. The assay can be described thus: Expression of LXR target gene ABCA1 in THP-1 monocytic cell line. The format is cell-based, human. The note with it: compound at 10 μM.

For `C[C@H](CCCC(C)(C)O)[C@H]1CC[C@H]2[C@@H]3CC=C4C[C@@H](O)CC[C@]4(C)[C@H]3CC[C@]12C` [25-hydroxycholesterol], the Ki in assay [1] came to 6.9 µM; in assay [2], 4 µM. The ABCA1 expression entry in assay [3] is on record as “increased the expression of ABCA1 as well, albeit at lower levels than T0901317”.
Take `O=S(=O)(c1ccccc1)N(CC(F)(F)F)c1ccc(C(O)(C(F)(F)F)C(F)(F)F)cc1` [Compound T0901317, T0901317]: in assay [3], the ABCA1 expression result is “increasing the expression of ABCA1”.

By Ki is commonly meant the dissociation constant of the complex between target and ligand, obtained from inhibition or displacement. Lower therefore signals higher affinity.
